Results taken from the supplement of paper PMC13380429.

Key:
[1] = tested on: A549-ACE2 infected with SARS-CoV-2; assay: cell count relative to DMSO; higher = less toxic; conditions: 24 h
Caco-2 [2] = assay: cell viability relative to DMSO; higher = less toxic; conditions: 72 h
Calu-3 [3] = assay: as above; conditions: 72 h
HepG2 [4] = assay: as above; conditions: 72 h
U2OS [5] = assay: as above; conditions: 72 h
Vero E6 [6] = assay: as above; conditions: 72 h
[7] = tested on: A549-ACE2 infected with SARS-CoV-2; assay: SARS-CoV-2 infection rate relative to DMSO; higher = more infection; conditions: 24 h
A549-ACE2 [8] = assay: drug-induced phospholipidosis relative to tamoxifen; higher = more phospholipidosis
[9] = tested on: A549-ACE2 infected with SARS-CoV-2; assay: morphology score (similarity to uninfected cells); higher = more like uninfected cells; conditions: 24 h
Caco-2 [10] = assay: relative viability EC50 (midpoint between 100% and the lowest measured viability); higher = less toxic; conditions: 72 h
Calu-3 [11] = assay: as above; conditions: 72 h
HepG2 [12] = assay: as above; conditions: 72 h
U2OS [13] = assay: as above; conditions: 72 h
Vero E6 [14] = assay: as above; conditions: 72 h
Caco-2 [15] = assay: drug sensitivity score (DSS) for viability; higher = more toxic; extreme values may be limits of the assay; conditions: 72 h
Calu-3 [16] = assay: as above; conditions: 72 h
HepG2 [17] = assay: as above; conditions: 72 h
U2OS [18] = assay: as above; conditions: 72 h
Vero E6 [19] = assay: as above; conditions: 72 h
A549-ACE2 [20] = assay: phospholipidosis EC50; higher = less potent phospholipidosis inducer

FC(F)(F)c1ccc(CNc2ccc(Cc3c[nH]c4ncc(Cl)cc34)cn2)cn1 [pexidartinib]
Conditions | SARS-CoV-2 infection rate, [7] [%] | cell count, [1] [%] | cell viability, Caco-2 [2] [%] | cell viability, Calu-3 [3] [%] | cell viability, HepG2 [4] [%] | cell viability, U2OS [5] [%] | cell viability, Vero E6 [6] [%] | morphology score, [9]
1 nM | – | – | 81.7 | 108 | 107 | 94.2 | 99.7 | –
10 nM | – | – | 95.7 | 108 | 92.2 | 100 | 96.4 | –
100 nM | – | – | 98.2 | 97.6 | 105 | 97.9 | 103 | –
0.3 µM | 104 | 95 | – | – | – | – | – | -0.17
1000 nM | – | – | 94.6 | 102 | 94.5 | 102 | 95.3 | –
3 µM | 102 | 101 | – | – | – | – | – | 0.07
10 µM | 103 | 101 | – | – | – | – | – | 0.25
10000 nM | – | – | 94.5 | 90 | 80.7 | 96.8 | 113 | –
30 µM | 67 | 92 | – | – | – | – | – | 0.46

drug-induced phospholipidosis [%], A549-ACE2 [8]
Conditions | 0.3 µM | 0.833333 µM | 3.33333 µM | 6.66667 µM | 10 µM | 30 µM
24 h | 1.33 | -1.52 | 1.3 | 5.68 | 7.59 | 11.6
48 h | 2.9 | -0.74 | 2.56 | 7.51 | 9.31 | 14.4
72 h | 4.54 | -1.68 | 3.26 | 9.4 | 15.6 | 20.7

Conditions | drug sensitivity score | relative viability EC50 [µM]
Caco-2 [10] | – | > 10
Caco-2 [15] | 0 | –
Calu-3 [11] | – | > 10
Calu-3 [16] | 0 | –
HepG2 [12] | – | > 10
HepG2 [17] | 1.2 | –
U2OS [13] | – | > 10
U2OS [18] | 0 | –
Vero E6 [14] | – | > 10
Vero E6 [19] | 0 | –

COc1cc(NC(C)CCCN)c2ncccc2c1 (stereo not given) [primaquine]
Conditions | SARS-CoV-2 infection rate, [7] [%] | cell count, [1] [%] | cell viability, Caco-2 [2] [%] | cell viability, Calu-3 [3] [%] | cell viability, HepG2 [4] [%] | cell viability, U2OS [5] [%] | cell viability, Vero E6 [6] [%] | morphology score, [9]
1 nM | – | – | 103 | 104 | 122 | 103 | 108 | –
10 nM | – | – | 108 | 90.7 | 107 | 102 | 105 | –
100 nM | – | – | 91.8 | 106 | 108 | 102 | 99.7 | –
0.3 µM | 97 | 102 | – | – | – | – | – | -0.01
1000 nM | – | – | 93.9 | 100 | 110 | 101 | 102 | –
10000 nM | – | – | 45.2 | 76.9 | 80.3 | 88.9 | 89.9 | –

A549-ACE2 [8], 0.3 µM
Conditions | drug-induced phospholipidosis [%]
24 h | 2.39
48 h | 2.15
72 h | 2.76

Conditions | drug sensitivity score | relative viability EC50 [µM]
Caco-2 [10] | – | 2.25
Caco-2 [15] | 4 | –
Calu-3 [11] | – | > 10
Calu-3 [16] | 0.8 | –
HepG2 [12] | – | > 10
HepG2 [17] | 0.3 | –
U2OS [13] | – | > 10
U2OS [18] | 0 | –
Vero E6 [14] | – | > 10
Vero E6 [19] | 0 | –

CCN(CC)CCNC(=O)c1c(C)[nH]c(/C=C2\C(=O)Nc3ccc(F)cc32)c1C [sunitinib]
Conditions | morphology score, 0.1 µM | morphology score, 0.3 µM | morphology score, 1 µM | morphology score, 3 µM | phospholipidosis EC50, 24 h [µM] | phospholipidosis EC50, 48 h [µM] | phospholipidosis EC50, 72 h [µM]
A549-ACE2 [20] | – | – | – | – | 4.75 | 4.77 | 3.32
[9] | 0.28 | 0.35 | 0.53 | 0.51 | – | – | –

Conditions | drug sensitivity score
Caco-2 [15] | 5.7
Calu-3 [16] | 0.1
HepG2 [17] | 9
U2OS [18] | 4
Vero E6 [19] | 4.1

COc1ccc2cc(-c3nc(-c4ccc([S+](C)[O-])cc4)[nH]c3-c3ccncc3)ccc2c1 (stereo not given) [tie2-kinase-inhibitor]
Conditions | SARS-CoV-2 infection rate [%] | cell count [%] | cell viability [%] | morphology score | phospholipidosis EC50 [µM]
A549-ACE2 [20], 24 h | – | – | – | – | 7.52
A549-ACE2 [20], 48 h | – | – | – | – | 6.68
Caco-2 [2], 1 nM | – | – | 104 | – | –
Caco-2 [2], 10 nM | – | – | 102 | – | –
Caco-2 [2], 100 nM | – | – | 108 | – | –
Caco-2 [2], 1000 nM | – | – | 89.6 | – | –
Caco-2 [2], 10000 nM | – | – | 97.4 | – | –
Calu-3 [3], 1 nM | – | – | 104 | – | –
Calu-3 [3], 10 nM | – | – | 103 | – | –
Calu-3 [3], 100 nM | – | – | 101 | – | –
Calu-3 [3], 1000 nM | – | – | 98.1 | – | –
Calu-3 [3], 10000 nM | – | – | 56.7 | – | –
HepG2 [4], 1 nM | – | – | 109 | – | –
HepG2 [4], 10 nM | – | – | 103 | – | –
HepG2 [4], 100 nM | – | – | 98.6 | – | –
HepG2 [4], 1000 nM | – | – | 91.7 | – | –
HepG2 [4], 10000 nM | – | – | 79.9 | – | –
U2OS [5], 1 nM | – | – | 104 | – | –
U2OS [5], 10 nM | – | – | 97.3 | – | –
U2OS [5], 100 nM | – | – | 106 | – | –
U2OS [5], 1000 nM | – | – | 96.5 | – | –
U2OS [5], 10000 nM | – | – | 84.6 | – | –
Vero E6 [6], 1 nM | – | – | 102 | – | –
Vero E6 [6], 10 nM | – | – | 102 | – | –
Vero E6 [6], 100 nM | – | – | 97.1 | – | –
Vero E6 [6], 1000 nM | – | – | 104 | – | –
Vero E6 [6], 10000 nM | – | – | 98.9 | – | –
[1], 0.3 µM | – | 101 | – | – | –
[1], 3 µM | – | 114 | – | – | –
[1], 10 µM | – | 122 | – | – | –
[1], 30 µM | – | 112 | – | – | –
[7], 0.3 µM | 98 | – | – | – | –
[7], 3 µM | 87 | – | – | – | –
[7], 10 µM | 43 | – | – | – | –
[7], 30 µM | 59 | – | – | – | –
[9], 0.3 µM | – | – | – | 0.15 | –
[9], 3 µM | – | – | – | 0.39 | –
[9], 10 µM | – | – | – | 0.69 | –
[9], 30 µM | – | – | – | 0.58 | –

drug-induced phospholipidosis [%], A549-ACE2 [8]
Conditions | 0.3 µM | 0.833333 µM | 3.33333 µM | 6.66667 µM | 10 µM | 30 µM
24 h | 3.67 | 4.27 | 13.4 | 35.8 | 68 | 86.8
48 h | 4.58 | 3.03 | 14.7 | 33.7 | 65 | 56.9
72 h | 3.91 | -0.14 | 11.2 | 35.7 | 69.8 | –

Conditions | drug sensitivity score | relative viability EC50 [µM]
Caco-2 [10] | – | > 10
Caco-2 [15] | 0.1 | –
Calu-3 [16] | 2.5 | –
HepG2 [12] | – | > 10
HepG2 [17] | 1.2 | –
U2OS [13] | – | > 10
U2OS [18] | 0.6 | –
Vero E6 [14] | – | > 10
Vero E6 [19] | 0 | –

CN(C)CCCN1c2ccccc2Sc2ccc(C(F)(F)F)cc21 [triflupromazine]
Conditions | morphology score, 0.3 µM | morphology score, 3 µM | morphology score, 10 µM | morphology score, 30 µM | phospholipidosis EC50, 24 h [µM] | phospholipidosis EC50, 48 h [µM] | phospholipidosis EC50, 72 h [µM]
A549-ACE2 [20] | – | – | – | – | 4.26 | 11.7 | 3.51
[9] | 0.09 | 0.65 | 0.84 | 0.41 | – | – | –
